{"source": "patent US9011853B2", "about": "“B7-H4 fusion proteins and methods of use thereof” (Amplimmune, Inc., priority 2009, dated 2015)", "system": "serum levels of 58 analytes", "assay": "Serum biomarker analysis, quantitative immunoassay multi-analyte profiling (Rules-Based Medicine RodentMAP v2.9), AA#80", "format": "in vivo, mouse", "details": "serum, individual mice; for GCP-2 (Granulocyte Chemotactic Potein-2): LDD 0.0245; for IL-17-(Interleukin-17): LDD 0.152; for GST-alpha (Glutathione S-Transferase alpha): LDD 0.42; for IL-1beta (Interleukin-1beta): LDD 0.447; for IL-12p70-(Interleukin-12p70): LDD 0.5712; for FGF-basic (Fibroblast Growth Factor-basic): LDD 0.577; for Haptoglobin: LDD 0.64; for IL-18 (Interleukin-18): LDD 0.674; for CRP (C Reactive Protein): LDD 0.83; for Factor VII: LDD 0.958; for FGF-9 (Fibroblast Growth Factor-9): LDD 0.9926; for GM-CSF (Granulocyte Macrophage-Colony Stimulating Factor): LDD 8.746; for Apo A1 (Apoilpoprotein A1): LDD 10.4; for CD40: LDD 12; for Eotaxin: LDD 12.25; for IL-3 (Interleukin-3): LDD 21.274; for EGF (Epidermal Growth Factor): LDD 39.1; for IL-1alpha (Interleukin-1alpha): LDD 44.92; for Endothelin-1: LDD 66.95; for IL-2 (Interleukin-2): LDD 67; for IFN-gamma (Interferon-gamma): LDD 67.82; for IL-4 (Interleukin-4): LDD 73.54; for IL-11 (Interleukin-11): LDD 87.38; for CD40 Ligand: LDD 92; for IL-10 (Interleukin-10): LDD 109.26; for Fibrinogen: LDD 170", "method": "In AA#80, serum samples were collected on Day 27, Day 34, Day 41 and Day 55 via the submandibular vein. Approximately 200 μL of blood per mouse was collected in Microtainer® serum separator tubes. Serum was removed following centrifugation and stored at <−65° C. until analysis.\nSelected serum samples were sent to Rules-Based Medicine (Austin, Tex.) for quantitative immunoassay multi-analyte profiling of serum samples, with the goal of identifying biomarkers that could be used to monitor disease progression and response to B7-H4-Ig treatment. Day 27, Day 34, and Day 41 sera from the three representative mice in the B7-H4-Ig group (tag #3332, 3334, and 3338) and three representative mice in the Synagis® group (tag #3324, 3329, and 3330) were analyzed for levels of 58 analytes using the RodentMAP v2.9 Testing Service.\nData from the Rules-Based Medicine analysis was analyzed using Microsoft Excel and GraphPad Prism software. T-tests were performed to compare the levels of each analyte in the B7-H4-Ig versus Synagis® treated samples. No correction was made for multiple comparisons. Additionally, correlation coefficients were calculated for each analyte versus disease score.", "note": "Where “and” joins values, the source holds several entries; their conditions need not be identical. Equal values may be shown once.", "data": [{"substance": "Human B7-H4-Ig: human B7-H4 extracellular domain fused to hinge, CH2 and CH3 regions of human immunoglobulin Cγ1 chain; representative SEQ ID NOs:114-137", "values": [{"measurement": "GCP-2 (Granulocyte Chemotactic Potein-2)", "setting": "Day 27", "result": "18 ng/mL and 18.5 ng/mL and 16.6 ng/mL"}, {"measurement": "IL-17-(Interleukin-17)", "setting": "Day 27", "result": "<low> (2×) and 0.00451 ng/ml"}, {"measurement": "GST-alpha (Glutathione S-Transferase alpha)", "setting": "Day 27", "result": "<low>"}, {"measurement": "IL-1beta (Interleukin-1beta)", "setting": "Day 27", "result": "4.36 ng/ml (2×) and 1.98 ng/ml"}, {"measurement": "IL-12p70-(Interleukin-12p70)", "setting": "Day 27", "result": "0.0532 ng/ml (2×) and <low>"}, {"measurement": "FGF-basic (Fibroblast Growth Factor-basic)", "setting": "Day 27", "result": "18.8 ng/mL and 17.8 ng/mL and 16.8 ng/mL"}, {"measurement": "Haptoglobin", "setting": "Day 27", "result": "161 µg/mL and 204 µg/mL and 123 µg/mL"}, {"measurement": "IL-18 (Interleukin-18)", "setting": "Day 27", "result": "13.3 ng/mL and 14.1 ng/mL and 11.7 ng/mL"}, {"measurement": "CRP (C Reactive Protein)", "setting": "Day 27", "result": "13.4 µg/mL and 8.16 µg/mL and 7.98 µg/mL"}, {"measurement": "Factor VII", "setting": "Day 27", "result": "33 ng/mL and 29.1 ng/mL and 26.4 ng/mL"}, {"measurement": "FGF-9 (Fibroblast Growth Factor-9)", "setting": "Day 27", "result": "<low>"}, {"measurement": "GM-CSF (Granulocyte Macrophage-Colony Stimulating Factor)", "setting": "Day 27", "result": "<low>"}, {"measurement": "Apo A1 (Apoilpoprotein A1)", "setting": "Day 27", "result": "57.3 µg/mL and 53.7 µg/mL and 42.7 µg/mL"}, {"measurement": "CD40", "setting": "Day 27", "result": "135 pg/ml (2×) and 151 pg/ml"}, {"measurement": "Eotaxin", "setting": "Day 27", "result": "626 pg/mL and 613 pg/mL and 623 pg/mL"}, {"measurement": "IL-3 (Interleukin-3)", "setting": "Day 27", "result": "<low>"}, {"measurement": "EGF (Epidermal Growth Factor)", "setting": "Day 27", "result": "18.4 pg/mL and 21.4 pg/mL and 20.4 pg/mL"}, {"measurement": "IL-1alpha (Interleukin-1alpha)", "setting": "Day 27", "result": "468 pg/mL and 284 pg/mL and 381 pg/mL"}, {"measurement": "Endothelin-1", "setting": "Day 27", "result": "20.2 pg/ml (2×) and 17.1 pg/ml"}, {"measurement": "IL-2 (Interleukin-2)", "setting": "Day 27", "result": "<low>"}, {"measurement": "IFN-gamma (Interferon-gamma)", "setting": "Day 27", "result": "<low> (2×) and 7.14 pg/ml"}, {"measurement": "IL-4 (Interleukin-4)", "setting": "Day 27", "result": "<low> and 27.9 pg/ml and 17.7 pg/ml"}, {"measurement": "IL-11 (Interleukin-11)", "setting": "Day 27", "result": "<low> (2×) and 27 pg/ml"}, {"measurement": "CD40 Ligand", "setting": "Day 27", "result": "1980 pg/mL and 1550 pg/mL and 1320 pg/mL"}, {"measurement": "IL-10 (Interleukin-10)", "setting": "Day 27", "result": "<low> (2×) and 94.2 pg/ml"}, {"measurement": "Fibrinogen", "setting": "Day 27", "result": "<low>"}, {"measurement": "GCP-2 (Granulocyte Chemotactic Potein-2)", "setting": "Day 34", "result": "17.1 ng/mL and 18.1 ng/mL and 16.2 ng/mL"}, {"measurement": "IL-17-(Interleukin-17)", "setting": "Day 34", "result": "0.0152 ng/mL and 0.00808 ng/mL and 0.00572 ng/mL"}, {"measurement": "GST-alpha (Glutathione S-Transferase alpha)", "setting": "Day 34", "result": "<low> and 4.16 ng/ml and 2.96 ng/ml"}, {"measurement": "IL-1beta (Interleukin-1beta)", "setting": "Day 34", "result": "5.12 ng/mL and 3.58 ng/mL"}, {"measurement": "IL-12p70-(Interleukin-12p70)", "setting": "Day 34", "result": "0.0725 ng/ml and <low>"}, {"measurement": "FGF-basic (Fibroblast Growth Factor-basic)", "setting": "Day 34", "result": 17.8, "unit": "ng/mL"}, {"measurement": "Haptoglobin", "setting": "Day 34", "result": "281 µg/mL and 162 µg/mL and 140 µg/mL"}, {"measurement": "IL-18 (Interleukin-18)", "setting": "Day 34", "result": "11.7 ng/mL and 10.9 ng/mL and 13.1 ng/mL"}, {"measurement": "CRP (C Reactive Protein)", "setting": "Day 34", "result": "17.2 µg/mL and 8.79 µg/mL and 12.4 µg/mL"}, {"measurement": "Factor VII", "setting": "Day 34", "result": "31.7 ng/mL and 33 ng/mL and 29.1 ng/mL"}, {"measurement": "FGF-9 (Fibroblast Growth Factor-9)", "setting": "Day 34", "result": "<low>"}, {"measurement": "GM-CSF (Granulocyte Macrophage-Colony Stimulating Factor)", "setting": "Day 34", "result": "<low>"}, {"measurement": "Apo A1 (Apoilpoprotein A1)", "setting": "Day 34", "result": "37.8 µg/mL and 48.5 µg/mL and 54.1 µg/mL"}, {"measurement": "CD40", "setting": "Day 34", "result": "96.7 pg/mL and 147 pg/mL and 136 pg/mL"}, {"measurement": "Eotaxin", "setting": "Day 34", "result": "630 pg/mL and 602 pg/mL and 700 pg/mL"}, {"measurement": "IL-3 (Interleukin-3)", "setting": "Day 34", "result": "<low>"}, {"measurement": "EGF (Epidermal Growth Factor)", "setting": "Day 34", "result": "22.4 pg/mL and 14.3 pg/mL and 20.4 pg/mL"}, {"measurement": "IL-1alpha (Interleukin-1alpha)", "setting": "Day 34", "result": "361 pg/mL and 447 pg/mL and 587 pg/mL"}, {"measurement": "Endothelin-1", "setting": "Day 34", "result": "22.2 pg/mL and 20.2 pg/mL"}, {"measurement": "IL-2 (Interleukin-2)", "setting": "Day 34", "result": "<low>"}, {"measurement": "IFN-gamma (Interferon-gamma)", "setting": "Day 34", "result": "7.14 pg/mL and 3.58 pg/mL"}, {"measurement": "IL-4 (Interleukin-4)", "setting": "Day 34", "result": "17.7 pg/ml and <low>"}, {"measurement": "IL-11 (Interleukin-11)", "setting": "Day 34", "result": 17.1, "unit": "pg/mL"}, {"measurement": "CD40 Ligand", "setting": "Day 34", "result": "1370 pg/mL and 2030 pg/mL and 2180 pg/mL"}, {"measurement": "IL-10 (Interleukin-10)", "setting": "Day 34", "result": "94.2 pg/ml and <low>"}, {"measurement": "Fibrinogen", "setting": "Day 34", "result": "136 ug/ml and <low>"}, {"measurement": "GCP-2 (Granulocyte Chemotactic Potein-2)", "setting": "Day 41", "result": "16.9 ng/mL and 16.3 ng/mL and 20.9 ng/mL"}, {"measurement": "IL-17-(Interleukin-17)", "setting": "Day 41", "result": "0.00572 ng/ml (2×) and <low>"}, {"measurement": "GST-alpha (Glutathione S-Transferase alpha)", "setting": "Day 41", "result": "1.01 ng/mL and 0.477 ng/mL and 1.64 ng/mL"}, {"measurement": "IL-1beta (Interleukin-1beta)", "setting": "Day 41", "result": "4.36 ng/ml and 5.12 ng/ml (2×)"}, {"measurement": "IL-12p70-(Interleukin-12p70)", "setting": "Day 41", "result": "<low> (2×) and 0.0914 ng/ml"}, {"measurement": "FGF-basic (Fibroblast Growth Factor-basic)", "setting": "Day 41", "result": "19.9 ng/mL and 17.8 ng/mL and 18.8 ng/mL"}, {"measurement": "Haptoglobin", "setting": "Day 41", "result": "267 µg/mL and 270 µg/mL and 193 µg/mL"}, {"measurement": "IL-18 (Interleukin-18)", "setting": "Day 41", "result": "13.3 ng/mL and 11.7 ng/mL and 11.5 ng/mL"}, {"measurement": "CRP (C Reactive Protein)", "setting": "Day 41", "result": "17.1 µg/mL and 10.6 µg/mL and 12.1 µg/mL"}, {"measurement": "Factor VII", "setting": "Day 41", "result": "36.9 ng/mL and 30.4 ng/mL and 27.7 ng/mL"}, {"measurement": "FGF-9 (Fibroblast Growth Factor-9)", "setting": "Day 41", "result": "<low>"}, {"measurement": "GM-CSF (Granulocyte Macrophage-Colony Stimulating Factor)", "setting": "Day 41", "result": "<low>"}, {"measurement": "Apo A1 (Apoilpoprotein A1)", "setting": "Day 41", "result": "46.8 µg/mL and 49.5 µg/mL and 46 µg/mL"}, {"measurement": "CD40", "setting": "Day 41", "result": "108 pg/mL and 105 pg/mL and 140 pg/mL"}, {"measurement": "Eotaxin", "setting": "Day 41", "result": "629 pg/mL and 493 pg/mL and 694 pg/mL"}, {"measurement": "IL-3 (Interleukin-3)", "setting": "Day 41", "result": "<low>"}, {"measurement": "EGF (Epidermal Growth Factor)", "setting": "Day 41", "result": "28.4 pg/mL and 16.3 pg/mL and 18.4 pg/mL"}, {"measurement": "IL-1alpha (Interleukin-1alpha)", "setting": "Day 41", "result": "488 pg/mL and 284 pg/mL and 1950 pg/mL"}, {"measurement": "Endothelin-1", "setting": "Day 41", "result": "21.2 pg/mL and 20.2 pg/mL and 16 pg/mL"}, {"measurement": "IL-2 (Interleukin-2)", "setting": "Day 41", "result": "<low>"}, {"measurement": "IFN-gamma (Interferon-gamma)", "setting": "Day 41", "result": "3.58 pg/ml (2×) and 7.14 pg/ml"}, {"measurement": "IL-4 (Interleukin-4)", "setting": "Day 41", "result": "35.7 pg/ml and 17.7 pg/ml (2×)"}, {"measurement": "IL-11 (Interleukin-11)", "setting": "Day 41", "result": "17.1 pg/ml and <low> (2×)"}, {"measurement": "CD40 Ligand", "setting": "Day 41", "result": "1680 pg/mL and 1630 pg/mL and 1830 pg/mL"}, {"measurement": "IL-10 (Interleukin-10)", "setting": "Day 41", "result": "<low>"}, {"measurement": "Fibrinogen", "setting": "Day 41", "result": "<low> (2×) and 118 ug/ml"}]}]}
